This passage reports GI50 and TGI results from PubChem BioAssay (NCI).

Among the test systems are HOP-62 NSCLC; HL-60(TB) leukemia; SF-268 CNS; K-562 leukemia; CCRF-CEM leukemia; HCT-116 colon; NCI-H460 lung; HS 578T breast; HT29 colon; SNB-75 CNS.
Common to all, as to assay: growth of human tumour cells (NCI), 48 h

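All cell lines were grown in 96-well plates and treated with compound for 48 hours. Abbreviation: GI50, concentration required for 50% inhibition of growth. TGI: total growth inhibition.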

As for `COC(=O)c1ccc2[nH]c(O)c(C(=Nc3ccc(N(C)C(=O)CN4CCN(C)CC4)cc3)c3ccccc3)c2c1`, the GI50 in the experiment with HOP-62 NSCLC was 2.1 µM; with HL-60(TB) leukemia, 0.835 µM; in the experiment on SF-268 CNS, 1.33 µM; in the experiment with K-562 leukemia it was 0.241 µM; in the experiment with CCRF-CEM leukemia it was 0.666 µM; with HCT-116 colon, 0.343 µM. The GI50 in the experiment with NCI-H460 lung was 1.87 µM; in the experiment on HS 578T breast it was 0.266 µM. Moreover, the TGI with HOP-62 NSCLC is 13 µM; in the experiment on HL-60(TB) leukemia it was 3.12 µM; with SF-268 CNS, 7.94 µM; in the experiment with K-562 leukemia, 11.9 µM; with CCRF-CEM leukemia, > 100 µM; with HCT-116 colon it was 3.06 µM. For the same compound, the values for the TGI in the experiment with NCI-H460 lung and in the experiment on HS 578T breast were 5.09 µM and 4.57 µM, respectively.
On to `CCCCCCCCCCCCOC1C(C(CC(=O)N2CCN(Cc3ccc4c(c3)OCO4)CC2)NS(=O)(=O)c2cc(Cl)cc(Cl)c2)OC2OC(C)(C)OC21` (configuration not stated), for which the GI50 in the experiment on HOP-62 NSCLC was 86.5 µM; in the experiment with HL-60(TB) leukemia it was 10.8 µM; with SF-268 CNS it was 12.3 µM; in the experiment on K-562 leukemia it was 14.8 µM; in the experiment with HCT-116 colon it was 6.69 µM; with NCI-H460 lung, 5.44 µM. Further, the GI50 in the experiment with HT29 colon was 4.82 µM; in the experiment with SNB-75 CNS, > 45 µM; in the experiment on HS 578T breast it was 9.17 µM. In addition, the TGI is > 100 µM with HOP-62 NSCLC; 78.3 µM in the experiment with HL-60(TB) leukemia; > 91.5 µM with SF-268 CNS; > 100 µM with K-562 leukemia; 36.7 µM in the experiment with HCT-116 colon; 35 µM in the experiment with NCI-H460 lung. Further, the TGI in the experiment with HT29 colon was 31.1 µM; with SNB-75 CNS it was > 100 µM; in the experiment on HS 578T breast, > 68.9 µM.
Take `Nc1ncc(C2[C@H](CNC(=O)c3cc(Br)c[nH]3)C(CNC(=O)c3cc(Br)c[nH]3)[C@@H]2c2cnc(N)[nH]2)[nH]1` (some centres not stated): the GI50 in the experiment on HOP-62 NSCLC is > 50 µM; with SF-268 CNS, > 50 µM; in the experiment on K-562 leukemia, 48.1 µM; in the experiment on CCRF-CEM leukemia it was > 50 µM; in the experiment on HCT-116 colon, > 50 µM; with NCI-H460 lung it was > 50 µM. Moreover, in the experiment on HS 578T breast, the GI50 was 40.1 µM. Besides, the TGI in the experiment on HOP-62 NSCLC, in the experiment on SF-268 CNS, in the experiment on K-562 leukemia, in the experiment with CCRF-CEM leukemia, in the experiment with HCT-116 colon and in the experiment on NCI-H460 lung was > 50 µM in each case. In the experiment with HS 578T breast, the TGI was > 50 µM.
Regarding `C[C@]12CCC3=NCCN3C1=CC[C@@H]1[C@@H]2CC[C@@]2(C)[C@H]1CC[C@]2(C)O`, the TGI in the experiment on HOP-62 NSCLC, in the experiment with SF-268 CNS, in the experiment on K-562 leukemia, in the experiment with HCT-116 colon, in the experiment on NCI-H460 lung and in the experiment on HT29 colon was > 100 µM each time. Besides, the results for the TGI in the experiment on SNB-75 CNS and in the experiment on HS 578T breast were > 100 µM and 74.7 µM, respectively.
For the compound `C=CCN=C(N/N=C/c1ccc([N+](=O)[O-])o1)NS(=O)(=O)c1cc(C(=O)Nc2ccccc2)c(Cl)cc1SCC(N)=O`, the GI50 was 53.9 µM with HOP-62 NSCLC; 29 µM in the experiment on SF-268 CNS; 9.16 µM in the experiment with K-562 leukemia; 5.73 µM with CCRF-CEM leukemia; 20.2 µM in the experiment with HCT-116 colon; 69.4 µM in the experiment with NCI-H460 lung. The GI50 in the experiment on HT29 colon was 40.8 µM; in the experiment on SNB-75 CNS it was > 100 µM; with HS 578T breast, 15.6 µM. The TGI in the experiment with HOP-62 NSCLC was > 100 µM; with SF-268 CNS, > 100 µM; with K-562 leukemia it was 49.8 µM; in the experiment on CCRF-CEM leukemia it was 27.6 µM; with HCT-116 colon it was 49 µM; in the experiment on NCI-H460 lung it was > 100 µM. In addition, the results for the TGI in the experiment on HT29 colon, in the experiment with SNB-75 CNS and in the experiment with HS 578T breast were > 100 µM, > 100 µM and 66.3 µM, respectively.
In the case of `O=C(OC[C@@H]1CO1)c1cccc2c(=O)c3ccccc3[nH]c12`, the GI50 in the experiment with HOP-62 NSCLC is 0.357 µM; in the experiment with SF-268 CNS, 0.172 µM; in the experiment on K-562 leukemia, 0.24 µM; in the experiment with CCRF-CEM leukemia it was 0.0896 µM; in the experiment with HCT-116 colon it was 0.127 µM; with NCI-H460 lung, 0.38 µM. Besides, the GI50 in the experiment on HT29 colon was 0.311 µM; in the experiment on SNB-75 CNS, 0.288 µM; with HS 578T breast it was 0.499 µM. For the same compound, the TGI is 3.45 µM with HOP-62 NSCLC; 1.01 µM in the experiment with SF-268 CNS; > 100 µM in the experiment on K-562 leukemia; > 100 µM with CCRF-CEM leukemia; 10.1 µM in the experiment on HCT-116 colon; 1.75 µM with NCI-H460 lung. Also, the values for the TGI in the experiment with HT29 colon, with SNB-75 CNS and with HS 578T breast were 3.17 µM, 1.49 µM and 3.78 µM, respectively.
On to `O=C(N/N=C/c1ccc(F)cc1)c1ccc(C(F)(F)F)nc1Nc1cccc(C(F)(F)F)c1`, for which the GI50 with HOP-62 NSCLC was 1.2 µM; in the experiment with HL-60(TB) leukemia, 0.827 µM; with SF-268 CNS, 0.465 µM; in the experiment on K-562 leukemia it was 1.07 µM; with HCT-116 colon, 0.65 µM; in the experiment with NCI-H460 lung, 1.29 µM. The results for the GI50 in the experiment on HT29 colon, with SNB-75 CNS and in the experiment on HS 578T breast were 2.02 µM, 1.64 µM and 1.73 µM, respectively. The TGI in the experiment with HOP-62 NSCLC was 4.85 µM; in the experiment with HL-60(TB) leukemia, 3.72 µM; with SF-268 CNS, 2.34 µM; in the experiment on K-562 leukemia it was 5.02 µM; in the experiment with HCT-116 colon it was 2.79 µM; in the experiment with NCI-H460 lung, 3.08 µM. The figures for the TGI with HT29 colon, in the experiment with SNB-75 CNS and in the experiment on HS 578T breast were 5.23 µM, 10.2 µM and 6.87 µM, respectively.
Regarding `O=C(Oc1ccc2c(c1)CN(Cc1ccccc1)CO2)c1ccccc1`, the TGI in the experiment on HOP-62 NSCLC was 38.6 µM; in the experiment on SF-268 CNS, 33 µM; in the experiment on K-562 leukemia it was 49.6 µM; in the experiment with CCRF-CEM leukemia, > 100 µM; in the experiment with HCT-116 colon, 30.6 µM; in the experiment with NCI-H460 lung, 36.1 µM. The figures for the TGI in the experiment with HT29 colon, with SNB-75 CNS and in the experiment on HS 578T breast were 40.8 µM, 32.5 µM and 61.5 µM, respectively.
Regarding `OCC#Cc1ccccc1C#Cc1ccc(C#Cc2ccccc2)cc1`, the GI50 in the experiment on HL-60(TB) leukemia is 0.489 µM; in the experiment on SF-268 CNS it was 23.7 µM; in the experiment on K-562 leukemia, 3.92 µM; in the experiment on HCT-116 colon, 16.6 µM; in the experiment on NCI-H460 lung, 20.5 µM; with HT29 colon, 12.7 µM. For the same compound, the GI50 in the experiment with SNB-75 CNS was 32.4 µM; with HS 578T breast, 31 µM. In addition, the TGI with HL-60(TB) leukemia was > 100 µM; in the experiment on SF-268 CNS, > 100 µM; in the experiment with K-562 leukemia it was 26.3 µM; in the experiment with HCT-116 colon, 32.3 µM; with NCI-H460 lung it was 79.8 µM; in the experiment on HT29 colon, 33.5 µM. For the same compound, the TGI in the experiment on SNB-75 CNS and with HS 578T breast was > 100 µM each time.
`O=C1CCS/C(=N/S(=O)(=O)c2ccc(N3N=C4c5ccccc5CC4C3c3cccs3)cc2)N1Cc1ccccc1` (configuration not stated): the GI50 was 18.6 µM in the experiment with HOP-62 NSCLC; > 100 µM with SF-268 CNS; > 100 µM in the experiment on K-562 leukemia; 28 µM in the experiment with CCRF-CEM leukemia; 20.3 µM in the experiment with HCT-116 colon; > 100 µM in the experiment with NCI-H460 lung. The values for the GI50 in the experiment on HT29 colon, in the experiment with SNB-75 CNS and in the experiment with HS 578T breast were 37 µM, 30.2 µM and 23.5 µM, respectively. The TGI was 34 µM with HOP-62 NSCLC; > 100 µM with SF-268 CNS; > 100 µM in the experiment with K-562 leukemia; 75.7 µM in the experiment on CCRF-CEM leukemia; 34.5 µM in the experiment on HCT-116 colon; > 100 µM in the experiment on NCI-H460 lung. Also, the TGI with HT29 colon was > 100 µM; in the experiment on SNB-75 CNS it was 78.7 µM; in the experiment on HS 578T breast, 67.2 µM.
In the case of `C=C1CC/C=C(\C)CC[C@H](C(=C)C)[C@@H](O)/C=C(/CO)CCC1O` (some centres not stated), the GI50 was > 100 µM in the experiment with HOP-62 NSCLC; 78.4 µM with SF-268 CNS; 24.5 µM in the experiment with K-562 leukemia; 24 µM in the experiment with CCRF-CEM leukemia; 35.4 µM in the experiment on HCT-116 colon; 54.8 µM in the experiment on NCI-H460 lung. For the same compound, the GI50 is > 100 µM in the experiment with HT29 colon, > 100 µM in the experiment with SNB-75 CNS and 42.5 µM in the experiment with HS 578T breast. The TGI is > 100 µM in the experiment on HOP-62 NSCLC; > 100 µM in the experiment with SF-268 CNS; 69.7 µM in the experiment on K-562 leukemia; 48.6 µM with CCRF-CEM leukemia; > 100 µM with HCT-116 colon; > 100 µM in the experiment with NCI-H460 lung. The TGI in the experiment on HT29 colon, in the experiment on SNB-75 CNS and in the experiment with HS 578T breast was > 100 µM in each case.
For `COC(=O)[C@]1(C)CCC[C@]2(C)[C@@H]1CCC13C[C@@H](C=CO1)[C@@H](C)CC32O` (some centres not stated), the GI50 in the experiment on HOP-62 NSCLC was > 100 µM; with HL-60(TB) leukemia, 45.4 µM; with SF-268 CNS, > 100 µM; in the experiment with K-562 leukemia, 36.7 µM; in the experiment on HCT-116 colon it was 7.89 µM; in the experiment with NCI-H460 lung, 43.8 µM. The GI50 in the experiment on HT29 colon was 11 µM; with SNB-75 CNS, 62.2 µM; with HS 578T breast, 20.7 µM. The TGI with HOP-62 NSCLC, in the experiment on HL-60(TB) leukemia, with SF-268 CNS, with K-562 leukemia, with HCT-116 colon and in the experiment with NCI-H460 lung was > 100 µM in each case. Moreover, the TGI in the experiment with HT29 colon was > 100 µM; in the experiment with SNB-75 CNS, > 100 µM; in the experiment on HS 578T breast it was 76.5 µM.
Turning to `CCSc1ncc(Br)c(Sc2nc(N)nc3nc[nH]c23)n1`, the GI50 with HOP-62 NSCLC is 1.64 µM; with HL-60(TB) leukemia, 19.8 µM; with SF-268 CNS, 3 µM; in the experiment on K-562 leukemia, 3.11 µM; with HCT-116 colon, 2.86 µM; in the experiment on NCI-H460 lung, 3.08 µM. Further, the GI50 in the experiment with HT29 colon was 5.74 µM; in the experiment with SNB-75 CNS, 1.57 µM; with HS 578T breast, 7.47 µM. Also, the TGI was 24.4 µM in the experiment with HOP-62 NSCLC; 88.6 µM in the experiment on HL-60(TB) leukemia; > 100 µM in the experiment with SF-268 CNS; > 100 µM with K-562 leukemia; > 100 µM in the experiment with HCT-116 colon; 23.4 µM in the experiment on NCI-H460 lung. Moreover, the TGI with HT29 colon is 80.3 µM; with SNB-75 CNS, 14 µM; in the experiment on HS 578T breast, > 100 µM.
